target: T1, human PDE4D catalytic domain (Homo sapiens, UniProt Q08499); experiment: PDE4 Assay; assay type: biochemical; settings: human PDE4D catalytic domain (S380-L740), TR-FRET with FAM-cAMP; expressed as a range of IC50; read-out: PDE4 Potency Range
T1 construct: UniProt no; Q08499 [S380-L740]
How it was run: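 Catalytic domain (S380-L740) was incubated with unlabelled cAMP plus FAM-cAMP and titrated compound, then stopped with Tb-donor nanoparticles binding AMP phospho groups. Generated AMP was read by time-resolved FRET; IC50 was reported as 50% inhibition of substrate cleavage relative to controls, expressed as nM ranges.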

T1 sequence (Q08499 380-740): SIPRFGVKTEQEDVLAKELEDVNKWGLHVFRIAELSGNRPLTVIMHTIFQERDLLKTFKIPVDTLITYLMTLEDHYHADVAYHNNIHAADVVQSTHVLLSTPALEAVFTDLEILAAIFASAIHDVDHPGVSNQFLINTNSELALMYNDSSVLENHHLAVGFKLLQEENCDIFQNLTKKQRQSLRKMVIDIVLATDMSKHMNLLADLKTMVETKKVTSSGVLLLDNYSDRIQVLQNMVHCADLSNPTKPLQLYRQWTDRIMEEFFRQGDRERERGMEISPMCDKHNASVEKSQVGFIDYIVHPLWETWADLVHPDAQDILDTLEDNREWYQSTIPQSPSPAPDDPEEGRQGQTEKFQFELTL

Structure (SMILES) | IC50
CCc1nn(CCCOC(=O)c2cccnn2)c2c1C(=O)NCC1(CCOCC1)C2 [Example 29, 3-(3-ethyl-4-oxo-spiro[6,8-dihydro-5H-pyrazolo[4,3-c]azepine-7,4′-tetrahydropyran]-1-yl)propyl pyridazine-3-carboxylate] | > 500 nM
CCc1nn(CCOC(=O)C2CCOCC2)c2c1C(=O)NCC1(CCOCC1)C2 [Example 8, 2-(3-ethyl-4-oxo-spiro[6,8-dihydro-5H-pyrazolo[4,3-c]azepine-7,4′-tetrahydropyran]-1-yl)ethyl tetrahydropyran-4-carboxylate] | > 500 nM
CCc1nn(CCCOC(=O)c2cn(C)cn2)c2c1C(=O)NCC1(CCOCC1)C2 [Example 39, 3-(3-ethyl-4-oxo-spiro[6,8-dihydro-5H-pyrazolo[4,3-c]azepine-7,4′-tetrahydropyran]-1-yl)propyl 1-methylimidazole-4-carboxylate] | > 500 nM
CCc1nn(CCCOC(=O)C2CCOC2)c2c1C(=O)NCC1(CCOCC1)C2 (centres unmarked) [Example 28, 3-(3-ethyl-4-oxo-spiro[6,8-dihydro-5H-pyrazolo[4,3-c]azepine-7,4′-tetrahydropyran]-1-yl)propyl tetrahydrofuran-3-carboxylate] | > 500 nM
CCc1nn(CCCOC(=O)c2c(C)noc2C)c2c1C(=O)NCC1(CCOCC1)C2 [Example 75, 3-(3-ethyl-4-oxo-spiro[6,8-dihydro-5H-pyrazolo[4,3-c]azepine-7,4′-tetrahydropyran]-1-yl)propyl 3,5-dimethylisoxazole-4-carboxylate] | > 500 nM
CCc1nn(CCCOC(=O)c2cc(C)n(C)n2)c2c1C(=O)NCC1(CCOCC1)C2 [Example 72, 3-(3-ethyl-4-oxo-spiro[6,8-dihydro-5H-pyrazolo[4,3-c]azepine-7,4′-tetrahydropyran]-1-yl)propyl 1,5-dimethylpyrazole-3-carboxylate] | > 500 nM
CCc1nn(CCOC(=O)Cc2cc(C)on2)c2c1C(=O)NCC1(CCOCC1)C2 [Example 11, 2-(3-ethyl-4-oxo-spiro[6,8-dihydro-5H-pyrazolo[4,3-c]azepine-7,4′-tetrahydropyran]-1-yl)ethyl 2-(5-methylisoxazol-3-yl)acetate] | > 500 nM
CCc1nn(CCOC(=O)c2cocn2)c2c1C(=O)NCC1(CCOCC1)C2 [Example 2, 2-(3-ethyl-4-oxo-spiro[6,8-dihydro-5H-pyrazolo[4,3-c]azepine-7,4′-tetrahydropyran]-1-yl)ethyl oxazole-4-carboxylate] | > 500 nM
CCc1nn(CC(C)(C)COC(=O)C2CCOCC2)c2c1C(=O)NCC1(CCOCC1)C2 [Example 111, [3-(3-ethyl-4-oxo-spiro[6,8-dihydro-5H-pyrazolo[4,3-c]azepine-7,4′-tetrahydropyran]-1-yl)-2,2-dimethyl-propyl] tetrahydropyran-4-carboxylate] | 100 to 500 nM
CCc1noc(C)c1C(=O)OCCCn1nc(CC)c2c1CC1(CCOCC1)CNC2=O [Example 92, 3-(3-ethyl-4-oxo-spiro[6,8-dihydro-5H-pyrazolo[4,3-c]azepine-7,4′-tetrahydropyran]-1-yl)propyl 3-ethyl-5-methyl-isoxazole-4-carboxylate] | > 500 nM
CCc1nn(CCCOC(=O)c2cnon2)c2c1C(=O)NCC1(CCOCC1)C2 [Example 27, 3-(3-ethyl-4-oxo-spiro[6,8-dihydro-5H-pyrazolo[4,3-c]azepine-7,4′-tetrahydropyran]-1-yl)propyl 1,2,5-oxadiazole-3-carboxylate] | 100 to 500 nM
CCc1nn(CCCOC(=O)C2CCCN(C(=O)N(C)C)C2)c2c1C(=O)NCC1(CCOCC1)C2 (centres unmarked) [Example 106, 3-(3-ethyl-4-oxo-spiro[6,8-dihydro-5H-pyrazolo[4,3-c]azepine-7,4′-tetrahydropyran]-1-yl)propyl 1-(dimethylcarbamoyl)piperidine-3-carboxylate] | 100 to 500 nM
CCc1nn(CCCOC(=O)c2noc(C)c2C)c2c1C(=O)NCC1(CCOCC1)C2 [Example 74, 3-(3-ethyl-4-oxo-spiro[6,8-dihydro-5H-pyrazolo[4,3-c]azepine-7,4′-tetrahydropyran]-1-yl)propyl 4,5-dimethylisoxazole-3-carboxylate] | 100 to 500 nM
CCc1nn(CCCOC(=O)c2cccc(C)n2)c2c1C(=O)NCC1(CCOCC1)C2 [Example 64, 3-(3-ethyl-4-oxo-spiro[6,8-dihydro-5H-pyrazolo[4,3-c]azepine-7,4′-tetrahydropyran]-1-yl)propyl 6-methylpyridine-2-carboxylate] | > 500 nM
CCc1nn(CCCOC(=O)c2cc(C)no2)c2c1C(=O)NCC1(CCOCC1)C2 [Example 43, 3-(3-ethyl-4-oxo-spiro[6,8-dihydro-5H-pyrazolo[4,3-c]azepine-7,4′-tetrahydropyran]-1-yl)propyl 3-methylisoxazole-5-carboxylate] | 100 to 500 nM
CCc1nn(CCCOC(=O)c2coc(C3CC3)n2)c2c1C(=O)NCC1(CCOCC1)C2 [Example 89, 3-(3-ethyl-4-oxo-spiro[6,8-dihydro-5H-pyrazolo[4,3-c]azepine-7,4′-tetrahydropyran]-1-yl)propyl 2-cyclopropyloxazole-4-carboxylate] | 100 to 500 nM
CCc1nn(CCCOC(=O)c2ccns2)c2c1C(=O)NCC1(CCOCC1)C2 [Example 54, 3-(3-ethyl-4-oxo-spiro[6,8-dihydro-5H-pyrazolo[4,3-c]azepine-7,4′-tetrahydropyran]-1-yl)propyl isothiazole-5-carboxylate] | 100 to 500 nM
CCc1nn(CCCOC(=O)c2cc(C)n[nH]2)c2c1C(=O)NCC1(CCOCC1)C2 [Example 33, 3-(3-ethyl-4-oxo-spiro[6,8-dihydro-5H-pyrazolo[4,3-c]azepine-7,4′-tetrahydropyran]-1-yl)propyl 5-methyl-1H-pyrazole-3-carboxylate] | 100 to 500 nM
CCc1nn(CCCOC(=O)C2CCCS(=O)(=O)C2)c2c1C(=O)NCC1(CCOCC1)C2 (centres unmarked) [Example 102, 3-(3-ethyl-4-oxo-spiro[6,8-dihydro-5H-pyrazolo[4,3-c]azepine-7,4′-tetrahydropyran]-1-yl)propyl 1,1-dioxothiane-3-carboxylate] | > 500 nM
CCc1nn(CCCOC(=O)c2cc(O)no2)c2c1C(=O)NCC1(CCOCC1)C2 [Example 52, 3-(3-ethyl-4-oxo-spiro[6,8-dihydro-5H-pyrazolo[4,3-c]azepine-7,4′-tetrahydropyran]-1-yl)propyl 3-hydroxyisoxazole-5-carboxylate] | 100 to 500 nM
CCc1nn(CCOC(=O)c2coc(C)n2)c2c1C(=O)NCC1(CCOCC1)C2 [Example 5, 2-(3-ethyl-4-oxo-spiro[6,8-dihydro-5H-pyrazolo[4,3-c]azepine-7,4′-tetrahydropyran]-1-yl)ethyl 2-methyloxazole-4-carboxylate] | > 500 nM
CCc1nn(CCCOC(=O)c2cccnc2C)c2c1C(=O)NCC1(CCOCC1)C2 [Example 65, 3-(3-ethyl-4-oxo-spiro[6,8-dihydro-5H-pyrazolo[4,3-c]azepine-7,4′-tetrahydropyran]-1-yl)propyl 2-methylpyridine-3-carboxylate] | 100 to 500 nM
CCc1nn(CCCOC(=O)C2CCCN(C(=O)OC)C2)c2c1C(=O)NCC1(CCOCC1)C2 (centres unmarked) [Example 104, O3-[3-(3-ethyl-4-oxo-spiro[6,8-dihydro-5H-pyrazolo[4,3-c]azepine-7,4′-tetrahydropyran]-1-yl)propyl] O1-methyl piperidine-1,3-dicarboxylate] | 100 to 500 nM
CCc1nn(CCCOC(=O)C2CCSCC2)c2c1C(=O)NCC1(CCOCC1)C2 [Example 85, 3-(3-ethyl-4-oxo-spiro[6,8-dihydro-5H-pyrazolo[4,3-c]azepine-7,4′-tetrahydropyran]-1-yl)propyl tetrahydrothiopyran-4-carboxylate] | 100 to 500 nM
CCc1nn(CCCOC(=O)c2cnc(C)n2C)c2c1C(=O)NCC1(CCOCC1)C2 [Example 73, 3-(3-ethyl-4-oxo-spiro[6,8-dihydro-5H-pyrazolo[4,3-c]azepine-7,4′-tetrahydropyran]-1-yl)propyl 2,3-dimethylimidazole-4-carboxylate] | 100 to 500 nM
CCc1nn(CCCOC(=O)C2CCCSC2)c2c1C(=O)NCC1(CCOCC1)C2 (centres unmarked) [Example 84, 3-(3-ethyl-4-oxo-spiro[6,8-dihydro-5H-pyrazolo[4,3-c]azepine-7,4′-tetrahydropyran]-1-yl)propyl tetrahydrothiopyran-3-carboxylate] | 100 to 500 nM
CCc1nn(CCOC(=O)c2cnn(C)c2)c2c1C(=O)NCC1(CCOCC1)C2 [Example 3, 2-(3-ethyl-4-oxo-spiro[6,8-dihydro-5H-pyrazolo[4,3-c]azepine-7,4′-tetrahydropyran]-1-yl)ethyl 1-methylpyrazole-4-carboxylate] | > 500 nM
CCc1nn(CCCOC(=O)c2nccn2C)c2c1C(=O)NCC1(CCOCC1)C2 [Example 40, 3-(3-ethyl-4-oxo-spiro[6,8-dihydro-5H-pyrazolo[4,3-c]azepine-7,4′-tetrahydropyran]-1-yl)propyl 1-methylimidazole-2-carboxylate] | 100 to 500 nM
CCc1nn(CCCOC(=O)c2nc(C)c(C)s2)c2c1C(=O)NCC1(CCOCC1)C2 [Example 94, 3-(3-ethyl-4-oxo-spiro[6,8-dihydro-5H-pyrazolo[4,3-c]azepine-7,4′-tetrahydropyran]-1-yl)propyl 4,5-dimethylthiazole-2-carboxylate] | 100 to 500 nM

Reference: patent US11065257B2, “Substituted pyrazoloazepin-4-ones and their use as phosphodiesterase inhibitors” (LEO Pharma A/S, priority 2016, dated 2021)
